Test results from patent US20070274929A1, “ORAL COMPOSITION COMPRISING CHLORHEXIDINE AND MALTITOL OR ERYTHRITOL OR A MIXTURE THEREOF” (priority 2000, published 2007).

Experiment: Masking the bitterness of chlorhexidine, panel of trained taste assessors (sip-and-spit, labelled magnitude line scale)
Assay type: in vivo
Conditions: for difference of the bitterness of the CHXG/inhibitor mixture from the 0.1% CHXG reference (analysis of variance): ANOVA at the 5% level, reference 0.1% CHXG in 8% ethanol-water; for difference of the bitterness of the CHXG/inhibitor mixture from the 0.1% CHXG reference (analysis of variance) / % suppression of bitterness of 0.1% CHXG: n=18; for % suppression of bitterness of 0.1% CHXG: 8% w/w ethanol in water, reference bitterness set at 70 on line scale 0-100; for masking the bitter taste of chlorhexidine compared with xylitol: inhibitors at 2 & 4% w/w, 0.1% CHXG
Protocol: The efficacy of maltitol, erythritol and xylitol to mask the bitter taste of chlorhexidine digluconate (CHXG) was evaluated using a panel of trained taste assessors.
All test solutions were made up in still mineral water. All tasting sessions were carried out at room temperature (20° C.). Samples were made up w/v (unless otherwise specified) one day before tasting and stored in the refrigerator overnight, then allowed to equilibrate to room temperature the next day before serving.
Eighteen panellists volunteered for the study. The panellists were first screened for their taste acuity using basic identification ranking techniques. 0.20% sodium chloride, 0.054% citric acid, 0.8% sucrose, 0.04% caffeine and 0.15% potassium alum were used to determine their ability to sense and identify saltiness, sourness, sweetness, bitterness and astringency, respectively. The detection and identification thresholds for bitterness were then measured using eight increasing concentrations of quinine hydrochloride (over a range of 0-0.0012%). Panellists were also instructed to rank four random concentrations of caffeine in increasing order of bitterness intensity. A similar experiment was done using quinine hydrochloride. All panellists performed well in those tasks.
The screened panellists were then asked to assess the bitterness intensities of the chlorhexidine mixtures using a “Labelled magnitude line scale” (LMS) as defined by Green et al., Chemical Senses, 1996, 21, 323-334. Solutions were made up containing the bitter inhibitors, 0.1% w/w CHXG, 8% w/w ethanol in water. The following concentrations of inhibitors were used:
Two samples were presented at any one time, one of which was the reference (0.1% CHXG in 8% ethanol-water). Sample presentation was randomised and was duplicated during the course of the study.
The “sip-and-spit” method was used for tasting CHXG solutions. Panellists were instructed to sip 5 ml sample, swirl it around their mouth and spit it out immediately before judging its bitterness intensity. This technique was expected to take 3-4 seconds.
Panellists were instructed to taste the reference first and memorise its bitter intensity. This intensity was assigned the number 70 on the line scale marked 0-100. Panellists were asked to wait until they could no longer feel any bitterness in their mouths (approximately 10 min) before tasting the second solution, whose intensity they then ranked in proportion to the intensity of the reference on the same line scale. Panellists were provided with mineral water to cleanse their palates.
Analysis of Variance (ANOVA) at the 5% level of significance was performed using the EXCEL software to find out whether there were any significant differences between the CHXG reference and the CHXG/inhibitor mixtures. A Fisher Least Significant Difference (LSD) test (O'Mahony M, 1986, Sensory Evaluation of Food—Statistical Methods and Procedures, Marcel Dekker, Inc, New York) was carried out on those samples where a significant difference had been found, to identify which sample means differ from the reference.

[1] = inhibitor 2% w/w in 0.1% w/w CHXG
[2] = inhibitor 4% w/w in 0.1% w/w CHXG

Row | SMILES | difference of the bitterness of the CHXG/inhibitor mixture from the 0.1% CHXG reference (analysis of variance) | % suppression of bitterness of 0.1% CHXG [1] | % suppression of bitterness of 0.1% CHXG [2] | masking the bitter taste of chlorhexidine compared with xylitol
1 | OC[C@@H](O)[C@@H](O)CO [Erythritol] | significantly different | 29.2% | 28.2% | more effective than xylitol
2 | OC[C@@H](O)[C@@H](O[C@H]1O[C@H](CO)[C@@H](O)[C@H](O)[C@H]1O)[C@H](O)[C@@H](O)CO [Maltitol] | significantly different | 26.9% | 32.6% | more effective than xylitol
3 | OC[C@@H](O)[C@H](O)[C@@H](O)CO [Xylitol, reference compound] | – | 14.3% | 13.6% | –
